# Reference: ChEMBL document CHEMBL4706735, “Novel Pyrazolo[3,4-b]pyrazines as SHP2 Inhibitors for Treating Cancer” (ACS Med Chem Lett, 2021)
# Assay: Inhibition of ERK phosphorylation in human HCC827 cells incubated for 30 mins in serum free medium measured by sandwich ELISA
# Format: cell-based
# Conditions: HCC827, 0.5 h
row,SMILES,IC50
1,Cn1cc2c(Cl)c(-c3n[nH]c4nc(N5CCC6(CC5)CC(F)(F)C[C@H]6N)c(CO)nc34)ccc2n1,6.3 nM
2,C[C@@H]1OCC2(CCN(c3nc4[nH]nc(-c5cccc(Cl)c5F)c4nc3CO)CC2)[C@@H]1N,5.6 nM
3,Cn1nc2ccc(-c3n[nH]c4nc(N5CCC6(CC5)C[C@H](F)C[C@H]6N)c(CO)nc34)c(Cl)c2c1Cl,4.1 nM
4,Cn1nc2ccc(-c3n[nH]c4nc(N5CCC6(CC5)CC(F)(F)C[C@H]6N)c(CO)nc34)c(Cl)c2c1Cl,6.2 nM

# The remaining molecules from weak to strong by IC50, led by results:
row,IC50,SMILES
1,8.4 nM,COc1cnc2ccc(-c3n[nH]c4nc(N5CCC6(CC5)CO[C@@H](C)[C@H]6N)c(CO)nc34)c(Cl)c2n1
2,3.6 nM,C[C@@H]1OCC2(CCN(c3nc4[nH]nc(-c5ccc6nn(C)c(Cl)c6c5Cl)c4nc3CO)CC2)[C@@H]1N
